Laboratory results from patent US20150202172A1, “NOVEL METHOD OF USE” (Glaxo Group Limited, priority 2014, published 2015).
Values joined by “and” are separate entries in the source; they are usually repeats but may differ in a detail not shown here. Identical values can stand only once.

Tests used:
Assay type in all cases: in vivo, human
[1] = system: patients with Severe Refractory Chronic Hand Eczema (CHE); experiment: Clinical trial simulation (longitudinal dose response model): time from initial dose to onset of effect; conditions: for Time to Onset of Effect (a Drop of 2 or More Points in PGA in 30% of Subjects): 30 mg
Procedure: (§1) In reviewing the data to make these determinations, all available PGA scores observed (not including scores derived from missing data such as last observation carried forward (LOCF) including those at baseline, every 4 weeks during treatment, and every 4 to 8 weeks after cessation of treatment for up to 72 weeks post treatment from the various clinical trials were used to develop a longitudinal dose response model.
(§2) In clinical studies, efficacy was measured using PGA score and modified total lesion signs and symptoms (mTLSS) at various times during and post treatment. PGA scores over time were chosen for this analysis because PGA scores were the primary endpoint in the Phase III studies and were collected at more time points than the mTLSS. The PGA was graded according to 5 point scale (clear, almost clear, mild disease, moderate disease, severe disease). The mTLSS severity score was graded 0 to 3 for 7 parameters.
A >2 weeks time to onset is considered clinically relevant.

[2] = system: patients with Severe Refractory Chronic Hand Eczema (CHE); experiment: Clinical trial simulation (longitudinal dose response model): PGA score at end of treatment; conditions: 30 mg
Procedure: as §2
(§3) For the Physician Global Assessment (PGA), a general description of CHE severity, which is a well recognized scale is shown below in Table 7 for clarification purposes.

[3] = system: patients with Severe Refractory Chronic Hand Eczema (CHE); experiment: Clinical trial simulation (longitudinal dose response model): no relapse (PGA ≠ 5) by 6 months post treatment; conditions: for Proportion of Responders Who Did Not Relapse (PGA ≠ 5) 6 months Post Treatment / Proportion of Subjects with PGA = 1 at end of treatment who did not relapse (PGA ≠ 5) 6 Months Post Treatment / Proportion of Subjects with PGA = 2 at the end of treatment who did not relapse (PGA ≠ 5) 6 Months Post Treatment / Proportion of Subjects with PGA = 3 at the end of treatment who did not relapse (PGA ≠ 5) 6 Months Post Treatment / Proportion of Subjects with PGA = 1 Who Did Not Relapse (PGA ≠ 5) 6 Months Post Treatment / Proportion of Subjects with PGA = 2 Who Did Not Relapse (PGA ≠ 5) 6 Months Post Treatment / Proportion of Subjects with PGA = 3 Who Did Not Relapse (PGA ≠ 5) 6 Months Post Treatment: 30 mg
Procedure: as §1, §2, §3

## CC1=C(/C=C/C(C)=C\C=C\C(C)=C\C(=O)O)C(C)(C)CCC1 [Alitretinoin, 9-cis isomer of retinoic acid (RA)]
[1]; 65 or 75 year old compared with a 30 year old
  faster time to onset of effect: > 2 weeks
[1]; age 30 yr
  Time to Onset of Effect (a Drop of 2 or More Points in PGA in 30% of Subjects): 58 (49, 70) Days
[1]; age 50 yr
  Time to Onset of Effect (a Drop of 2 or More Points in PGA in 30% of Subjects): 49 (42, 56) Days
[1]; age 65 yr
  Time to Onset of Effect (a Drop of 2 or More Points in PGA in 30% of Subjects): 43 (35, 49) Days
[1]; age 75 yr
  Time to Onset of Effect (a Drop of 2 or More Points in PGA in 30% of Subjects): 39 (35, 42) Days
[2]; age 30 yr
  Proportion of Responders (PGA = 1 or 2) at End of Treatment: 33.9 (26, 42) %
  Proportion of Subjects (PGA = 2) at End of Treatment: 22.9 (16, 30) %
  Proportion of Subjects (PGA = 3) at End of Treatment: 28.4 (21, 36) %
[2]; age 50 yr
  Proportion of Responders (PGA = 1 or 2) at End of Treatment: 41.1 (33, 49) %
  Proportion of Subjects (PGA = 1) at End of Treatment: 14.9 (9, 21) %
  Proportion of Subjects (PGA = 2) at End of Treatment: 26.3 (20, 34) %
  Proportion of Subjects (PGA = 3) at End of Treatment: 28.3 (20, 35) %
[2]; age 65 yr
  Proportion of Responders (PGA = 1 or 2) at End of Treatment: 48.0 (40, 56) %
  Proportion of Subjects (PGA = 1) at End of Treatment: 19.3 (13, 26) %
  Proportion of Subjects (PGA = 2) at End of Treatment: 28.7 (22, 36) %
  Proportion of Subjects (PGA = 3) at End of Treatment: 27.1 (19, 35) %
[2]; age 75 yr
  Proportion of Responders (PGA = 1 or 2) at End of Treatment: 53.0 (45, 62) %
  Proportion of Subjects (PGA = 1) at End of Treatment: 22.8 (16, 30) %
  Proportion of Subjects (PGA = 2) at End of Treatment: 30.2 (23, 37) %
  Proportion of Subjects (PGA = 3) at End of Treatment: 25.8 (18, 33) %
[2]; duration of treatment 4 weeks
  Proportion of Responders (PGA = 1 or 2) at End of Treatment: 4.3 (1, 8) %
  Proportion of Subjects (PGA = 1) at End of Treatment: 1.3 (1, 2) %
  Proportion of Subjects (PGA = 2) at End of Treatment: 3.7 (1, 7) %
  Proportion of Subjects (PGA = 3) at End of Treatment: 10.5 (5, 16) %
[2]; duration of treatment 8 weeks
  Proportion of Responders (PGA = 1 or 2) at End of Treatment: 15.2 (10, 21) %
  Proportion of Subjects (PGA = 1) at End of Treatment: 3.6 (1, 7) %
  Proportion of Subjects (PGA = 2) at End of Treatment: 11.7 (7, 17) %
  Proportion of Subjects (PGA = 3) at End of Treatment: 22.5 (16, 29) %
[2]; duration of treatment 12 weeks
  Proportion of Responders (PGA = 1 or 2) at End of Treatment: 23.7 (16, 31) %
  Proportion of Subjects (PGA = 1) at End of Treatment: 6.6 (3, 11) %
  Proportion of Subjects (PGA = 2) at End of Treatment: 17.1 (11, 24) %
  Proportion of Subjects (PGA = 3) at End of Treatment: 26.4 (19, 34) %
[2]; duration of treatment 16 weeks
  Proportion of Responders (PGA = 1 or 2) at End of Treatment: 30.2 (23, 38) %
  Proportion of Subjects (PGA = 1) at End of Treatment: 9.2 (5, 14) %
  Proportion of Subjects (PGA = 2) at End of Treatment: 21.0 (14, 28) %
  Proportion of Subjects (PGA = 3) at End of Treatment: 27.7 (21, 35) %
[2]; duration of treatment 20 weeks
  Proportion of Responders (PGA = 1 or 2) at End of Treatment: 35.4 (28, 43) %
  Proportion of Subjects (PGA = 1) at End of Treatment: 11.9 (7, 17) %
  Proportion of Subjects (PGA = 2) at End of Treatment: 23.6 (17, 31) %
  Proportion of Subjects (PGA = 3) at End of Treatment: 28.0 (21, 35) %
[2]; duration of treatment 24 weeks
  Proportion of Responders (PGA = 1 or 2) at End of Treatment: 40.4 (33, 48) %
  Proportion of Subjects (PGA = 1) at End of Treatment: 14.7 (9, 21) %
  Proportion of Subjects (PGA = 2) at End of Treatment: 25.7 (19, 33) %
  Proportion of Subjects (PGA = 3) at End of Treatment: 28.2 (21, 35) %
[3]; PGA score=1 or 2
  subjects who responded (PGA score=1 or 2) who would not return to severe disease within 6 months post treatment: > 83%
[3]; PGA=1 or PGA=2 at end of treatment (individually)
  difference between a 75 year old and 30 year old in the proportion of patients who did not relapse (PGA score≠5) 6 months after treatment: 10%
[3]; age 30 yr
  Proportion of Responders Who Did Not Relapse (PGA ≠ 5) 6 months Post Treatment: 79% and 78.7 (67, 90) %
  Proportion of Subjects with PGA = 1 at end of treatment who did not relapse (PGA ≠ 5) 6 Months Post Treatment: 77.7 (56, 92) %
  Proportion of Subjects with PGA = 2 at the end of treatment who did not relapse (PGA ≠ 5) 6 Months Post Treatment: 77.6 (62, 91) %
  Proportion of Subjects with PGA = 3 at the end of treatment who did not relapse (PGA ≠ 5) 6 Months Post Treatment: 76.8 (63, 89) %
[3]; age 50 yr
  Proportion of Responders Who Did Not Relapse (PGA ≠ 5) 6 months Post Treatment: 83.2 (73, 92) %
  Proportion of Subjects with PGA = 1 at end of treatment who did not relapse (PGA ≠ 5) 6 Months Post Treatment: 82.4 (65, 94) %
  Proportion of Subjects with PGA = 2 at the end of treatment who did not relapse (PGA ≠ 5) 6 Months Post Treatment: 82.6 (70, 93) %
  Proportion of Subjects with PGA = 3 at the end of treatment who did not relapse (PGA ≠ 5) 6 Months Post Treatment: 81.1 (68, 93) %
[3]; age 65 yr
  Proportion of Responders Who Did Not Relapse (PGA ≠ 5) 6 months Post Treatment: 87% and 86.6 (78, 94) %
  Proportion of Subjects with PGA = 1 at end of treatment who did not relapse (PGA ≠ 5) 6 Months Post Treatment: 86.0 (73, 95) %
  Proportion of Subjects with PGA = 2 at the end of treatment who did not relapse (PGA ≠ 5) 6 Months Post Treatment: 86.0 (74, 96) %
  Proportion of Subjects with PGA = 3 at the end of treatment who did not relapse (PGA ≠ 5) 6 Months Post Treatment: 84.3 (72, 95) %
[3]; age 75 yr
  Proportion of Responders Who Did Not Relapse (PGA ≠ 5) 6 months Post Treatment: 89% and 88.7 (81, 95) %
  Proportion of Subjects with PGA = 1 at end of treatment who did not relapse (PGA ≠ 5) 6 Months Post Treatment: 88.1 (76, 96) %
  Proportion of Subjects with PGA = 2 at the end of treatment who did not relapse (PGA ≠ 5) 6 Months Post Treatment: 88.0 (78, 96) %
  Proportion of Subjects with PGA = 3 at the end of treatment who did not relapse (PGA ≠ 5) 6 Months Post Treatment: 86.5 (74, 96) %
[3]; duration of treatment 4 weeks
  Proportion of Responders Who Did Not Relapse (PGA ≠ 5) 6 months Post Treatment: 79.2 (68, 89) %
  Proportion of Subjects with PGA = 1 Who Did Not Relapse (PGA ≠ 5) 6 Months Post Treatment: 79.8 (61, 93) %
  Proportion of Subjects with PGA = 2 Who Did Not Relapse (PGA ≠ 5) 6 Months Post Treatment: 77.9 (64, 91) %
  Proportion of Subjects with PGA = 3 Who Did Not Relapse (PGA ≠ 5) 6 Months Post Treatment: 76.4 (62, 88) %
[3]; duration of treatment 8 weeks
  Proportion of Responders Who Did Not Relapse (PGA ≠ 5) 6 months Post Treatment: 80.7 (70, 90) %
  Proportion of Subjects with PGA = 1 Who Did Not Relapse (PGA ≠ 5) 6 Months Post Treatment: 81.0 (63, 94) %
  Proportion of Subjects with PGA = 2 Who Did Not Relapse (PGA ≠ 5) 6 Months Post Treatment: 79.5 (67, 92) %
  Proportion of Subjects with PGA = 3 Who Did Not Relapse (PGA ≠ 5) 6 Months Post Treatment: 77.8 (65, 89) %
[3]; duration of treatment 12 weeks
  Proportion of Responders Who Did Not Relapse (PGA ≠ 5) 6 months Post Treatment: 82.3 (68, 95) %
  Proportion of Subjects with PGA = 1 Who Did Not Relapse (PGA ≠ 5) 6 Months Post Treatment: 81.9 (64, 94) %
  Proportion of Subjects with PGA = 2 Who Did Not Relapse (PGA ≠ 5) 6 Months Post Treatment: 80.8 (68, 92) %
  Proportion of Subjects with PGA = 3 Who Did Not Relapse (PGA ≠ 5) 6 Months Post Treatment: 79.1 (67, 90) %
[3]; duration of treatment 16 weeks
  Proportion of Responders Who Did Not Relapse (PGA ≠ 5) 6 months Post Treatment: 83.3 (72, 94) %
  Proportion of Subjects with PGA = 1 Who Did Not Relapse (PGA ≠ 5) 6 Months Post Treatment: 82.5 (66, 94) %
  Proportion of Subjects with PGA = 2 Who Did Not Relapse (PGA ≠ 5) 6 Months Post Treatment: 81.7 (69, 92) %
  Proportion of Subjects with PGA = 3 Who Did Not Relapse (PGA ≠ 5) 6 Months Post Treatment: 80.1 (67, 91) %
[3]; duration of treatment 20 weeks
  Proportion of Responders Who Did Not Relapse (PGA ≠ 5) 6 months Post Treatment: 83.9 (72, 94) %
  Proportion of Subjects with PGA = 1 Who Did Not Relapse (PGA ≠ 5) 6 Months Post Treatment: 83.1 (67, 94) %
  Proportion of Subjects with PGA = 2 Who Did Not Relapse (PGA ≠ 5) 6 Months Post Treatment: 82.6 (69, 94) %
  Proportion of Subjects with PGA = 3 Who Did Not Relapse (PGA ≠ 5) 6 Months Post Treatment: 80.9 (68, 92) %
[3]; duration of treatment 24 weeks
  Proportion of Responders Who Did Not Relapse (PGA ≠ 5) 6 months Post Treatment: 84.4 (75, 93) %
  Proportion of Subjects with PGA = 1 Who Did Not Relapse (PGA ≠ 5) 6 Months Post Treatment: 83.7 (67, 94) %
  Proportion of Subjects with PGA = 2 Who Did Not Relapse (PGA ≠ 5) 6 Months Post Treatment: 83.3 (70, 95) %
  Proportion of Subjects with PGA = 3 Who Did Not Relapse (PGA ≠ 5) 6 Months Post Treatment: 81.6 (68, 92) %
